Measured values published in patent publication US6022495A, “Photochromic benzopyrano-fused naphthopyrans” (Transitions Optical, Inc., priority 1998, dated 2000).

Tests used:
[1] = Photochromic response of polymer test squares on an optical bench; type: physicochemical; settings: for ΔOD @ Saturation: UV exposure continued for 15 minutes; for ΔOD @ Saturation / Sensitivity ΔOD/min: 72° F. (22.2° C.); for Sensitivity ΔOD/min: first five (5) seconds of UV exposure, expressed per minute; for Bleach Rate T 1/2: time for absorbance of activated form to reach one half the highest absorbance at room temperature (72° F.) after removal of activating light
Protocol: (§1) Testing was done with the photochromic compounds prepared in Examples 1-11 in the following manner. A quantity of each photochromic compound calculated to yield a 1.5×10^-3 molal solution was added to a flask containing 50 grams of a monomer blend of 4 parts ethoxylated bisphenol A dimethacrylate (BPA 2EO DMA), 1 part poly(ethylene glycol) 600 dimethacrylate, and 0.033 weight percent 2,2'-azobis(2-methyl propionitrile) (AIBN). Each photochromic compound was dissolved into the monomer blend by stirring and gentle heating. After a clear solution was obtained, it was poured into a flat sheet mold having the interior dimensions of 2.2 mm×6 inches (15.24 cm)×6 inches (15.24 cm). The mold was sealed and placed in a horizontal air flow, programmable oven programmed to increase the temperature from 40° C. to 95° C. over […], hold the temperature at 95° C. for 3 hours, lower it to 60° C. over a 2 hour interval and then hold at 60° C. for 16 hours. After the mold was opened, the polymer sheet was cut using a diamond blade saw into 2 inch (5.1 centimeters) test squares.
The photochromic test squares prepared in Part A were tested for photochromic response on an optical bench. Prior to testing on the optical bench, the photochromic test squares were exposed to 365 nanometer ultraviolet light for about 15 minutes to activate the photochromic compounds and then placed in a 76° C. oven for about 15 minutes to bleach or inactivate the photochromic compounds. The test squares were then cooled to room temperature, exposed to fluorescent room lighting for at least 2 hours and then kept covered for at least 2 hours prior to testing on an optical bench maintained at 72° F. (22.2° C.). The bench was fitted with a 150 watt Xenon arc lamp, a remote controlled shutter, a copper sulfate bath acting as a heat sink for the arc lamp, a Schott WG-320 nm cut-off filter which removes short wavelength radiation; neutral density filter(s) and a sample holder in which the square to be tested was inserted. The power output of the optical bench, i.e., the dosage of light that the sample lens would be exposed to, was calibrated with a photochromic test square used as a reference standard. […] The UV-A detector was placed into the sample holder and the light output was measured. Adjustments to the power output were made by increasing or decreasing the lamp wattage or by adding or removing neutral density filters in the light path.
A monitoring, collimated beam of light from a tungsten lamp was passed through the square at a small angle (approximately […]) normal to the square. After passing through the square, the light from the tungsten lamp was directed to a detector through Spectral Energy Corp. GM-200 monochromator set at the previously determined visible lambda max of the photochromic compound being measured. The output signals from the detector were processed by a radiometer.
Change in optical density (ΔOD) was determined by inserting a test square in the bleached state into the sample holder, adjusting the transmittance scale to 100%, opening the shutter from the Xenon lamp to provide ultraviolet radiation to change the test square from the bleached state to an activated (i.e., darkened) state, measuring the transmittance in the activated state, and calculating the change in optical density according to the formula: ΔOD=log(100/% Ta), where % Ta is the percent transmittance in the activated state and the logarithm is to the base 10.
The Δ OD/min, which represents the sensitivity of the photochromic compound's response to UV light, was measured over the first five (5) seconds of UV exposure, then expressed on a per minute basis. The saturation optical density (Δ OD@ Saturation) was taken under identical conditions as the Δ OD/min, except UV exposure was continued for 15 minutes. […]

[2] = Visible lambda max of the activated form in polymer test squares (Varian Cary 3 UV-Visible spectrophotometer); type: physicochemical; settings: activated (colored) form in test square of BPA 2EO DMA / poly(ethylene glycol) 600 dimethacrylate, 1.5×10^-3 molal
Protocol: as §1
The Δ OD/min, which represents the sensitivity of the photochromic compound's response to UV light, was measured over the first five (5) seconds of UV exposure, then expressed on a per minute basis. The saturation optical density (Δ OD@ Saturation) was taken under identical conditions as the Δ OD/min, except UV exposure was continued for 15 minutes. The lambda max (Vis) is the wavelength in nanometers (nm) in the visible spectrum at which the maximum absorption of the activated (colored) form of the photochromic compound in a test square occurs. The lambda max (Vis) wavelength was determined by testing the photochromic test square polymerizates of Part A in a Varian Cary 3 UV-Visible spectrophotometer. The Bleach Rate (T 1/2) is the time interval in seconds for the absorbance of the activated form of the photochromic compound in the test squares to reach one half the highest absorbance at room temperature (72° F., 22.20C.) after removal of the source of activating light.

Row | Structure (SMILES) | ΔOD @ Saturation [1] | Sensitivity ΔOD/min [1] | Bleach Rate T 1/2 [1] [s] | lambda max (Vis) [2] [nanometers] | also measured
1 | COc1ccc(C2(c3ccc(OC)cc3)C=Cc3c(c4c5ccccc5c(=O)oc4c4ccccc34)O2)cc1 [Compound 1A, 2,2-bis(4-methoxyphenyl)-10-oxo-2,10-dihydro[2]benzopyrano[4',3':3,4]naphtho(2,1-b)pyran] | 0.14 | 0.29 ΔOD/min | 18 | 493 | –
2 | COc1ccc(C2(c3ccc(OC)cc3)C=Cc3c(c4ccccc4c4c3oc(=O)c3ccccc34)O2)cc1 [Compound 1B, 6,6-bis(4-methoxyphenyl)-10-oxo-6,10-dihydro[2]benzopyrano[3',4':3,4]naphtho(1,2-b)pyran] | 0.07 | 0.19 ΔOD/min | 24 | 537 | –
3 | COc1ccc(C2(c3ccc(OC)cc3)C=Cc3c4c(c5ccccc5c3O2)-c2ccccc2CO4)cc1 [Compound 2, 6,6-bis(4-methoxyphenyl)-6,10-dihydro[2]benzopyrano[3'4':3,4]naphtho(1,2-b)pyran] | – | – | – | – | ΔOD @ Saturation ([1]; listed as 2A): 0.22; ΔOD @ Saturation ([1]; listed as 2B): 0.27; Sensitivity ΔOD/min ([1]; listed as 2A): 0.10 ΔOD/min; Sensitivity ΔOD/min ([1]; listed as 2B): 0.12 ΔOD/min; Bleach Rate T 1/2 ([1]; listed as 2A): 116 s; Bleach Rate T 1/2 ([1]; listed as 2B): 112 s; lambda max (Vis) ([2]; listed as 2A): 546 nanometers; lambda max (Vis) ([2]; listed as 2B): 432 nanometers
4 | COc1ccc(C2(c3ccc(N4CCOCC4)cc3)C=Cc3c(c4c5ccccc5c(=O)oc4c4ccccc34)O2)cc1 (centres unmarked) [Compound 3A, 2-(4-methoxyphenyl)-2-(4-morpholinophenyl)-10-oxo-2,10-dihydro[2]benzopyrano[4',3':3,4]naphtho(2,1-b)pyran] | 0.01 | 0.04 ΔOD/min | 3 | 530 | –
5 | COc1ccc(C2(c3ccc(N4CCOCC4)cc3)C=Cc3c(c4ccccc4c4c3oc(=O)c3ccccc34)O2)cc1 (centres unmarked) [Compound 3B, 6-(4-methoxyphenyl)-6-(4-morpholinophenyl)-10-oxo-6,10-dihydro[2]benzopyrano[3',4':3,4]naphtho(1,2-b)pyran] | 0.06 | 0.13 ΔOD/min | 39 | 598 | –
6 | COc1ccc(C2(c3ccc(N4CCOCC4)cc3)C=Cc3c4c(c5ccccc5c3O2)-c2ccccc2C(C)(C)O4)cc1 (centres unmarked) [Compound 4, 10,10-dimethyl-6-(4-methoxyphenyl)-6-(4-morpholinophenyl)-6,10-dihydro[2]benzopyrano[3',4':3,4]naphtho(1,2-b)pyran] | – | – | – | – | ΔOD @ Saturation ([1]; listed as 4A): 0.23; ΔOD @ Saturation ([1]; listed as 4B): 0.19; Sensitivity ΔOD/min ([1]; listed as 4A): 0.18 ΔOD/min; Sensitivity ΔOD/min ([1]; listed as 4B): 0.12 ΔOD/min; Bleach Rate T 1/2 ([1]; listed as 4A): 68 s; Bleach Rate T 1/2 ([1]; listed as 4B): 61 s; lambda max (Vis) ([2]; listed as 4A): 598 nanometers; lambda max (Vis) ([2]; listed as 4B): 472 nanometers
7 | O=c1oc2c3ccccc3c3c(c2c2ccccc12)OC(c1ccccc1)(c1ccc(N2CCOCC2)cc1)C=C3 (centres unmarked) [Compound 5A, 2-(4-morpholinophenyl)-2-phenyl-10-oxo-2,10-dihydro[2]benzopyrano[4',3':3,4]naphtho(2,1-b)pyran] | 0.12 | 0.21 ΔOD/min | 37 | 570 | –
8 | COc1ccc(C2(c3ccc(OC)cc3)C=Cc3c(c4c5cc(OC)c(OC)cc5c(=O)oc4c4ccccc34)O2)cc1 [Compound 6A, 2,2-bis(4-methoxyphenyl)-12,13-dimethoxy-10-oxo-2,10-dihydro[2]benzopyrano[4',3':3,4]naphtho(2,1-b)pyran] | 0.13 | 0.19 ΔOD/min | 28 | 477 | –
9 | COc1ccc(C2(c3ccc(OC)cc3)C=Cc3c(c4ccccc4c4c3oc(=O)c3cc(OC)c(OC)cc34)O2)cc1 [Compound 6B, 6,6-bis(4-methoxyphenyl)-12,13-dimethoxy-10-oxo-6,10-dihydro[2]benzopyrano[3',4':3,4]naphtho(1,2-b)pyran] | 0.10 | 0.22 ΔOD/min | 32 | 569 | –
